Tests used:
Assay in all cases: relative viability (nuclei count vs DMSO), 5 days (fraction); higher = more cells survive
[1] = tested on: NCI-H838
Summary of the method: (§1)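 Lung cancer cell lines in 1536-well plates were dosed by pin tool the day after seeding, either with one drug alone or with a fixed anchor-drug dose plus five library-drug doses (not always all listed) in √10 steps. After 5 days, cells were fixed and their nuclei stained in one step (final 0.05% Triton X-100, 1% formaldehyde, 1 ug/ml Hoechst), then counted on 4× images. Relative viability is the nuclei count in treated wells divided by that in vehicle wells. Values are medians of duplicate plates.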

[2] = tested on: NCI-H23
Summary of the method: as §1

[3] = tested on: NCI-H1993
Summary of the method: as §1

[4] = tested on: SK-LU-1
Summary of the method: as §1

[5] = tested on: NCI-H1793
Summary of the method: as §1

[6] = tested on: NCI-H2126
Summary of the method: as §1

[7] = tested on: NCI-H2405
Summary of the method: as §1

[8] = tested on: NCI-H2023
Summary of the method: as §1

[9] = tested on: NCI-H2228
Summary of the method: as §1

[10] = tested on: ChaGo-K-1
Summary of the method: as §1

[11] = tested on: A-427
Summary of the method: as §1

[12] = tested on: ABC-1
Summary of the method: as §1

[13] = tested on: UMC-11
Summary of the method: as §1

[14] = tested on: NCI-H1944
Summary of the method: as §1

[15] = tested on: NCI-H2009
Summary of the method: as §1

[16] = tested on: COR-L23
Summary of the method: as §1

[17] = tested on: LC-2-ad
Summary of the method: as §1

[18] = tested on: EMC-BAC-2
Summary of the method: as §1

[19] = tested on: HCC-15
Summary of the method: as §1

[20] = tested on: NCI-H1734
Summary of the method: as §1

[21] = tested on: HCC-366
Summary of the method: as §1

[22] = tested on: HCC-78
Summary of the method: as §1

[23] = tested on: HARA
Summary of the method: as §1

With `Oc1nc(-c2ccc(C(F)(F)F)cc2)nc2c1CSCC2` [XAV939] + CS(=O)(=O)N1CCN(Cc2cc3nc(-c4cccc5[nH]ncc45)nc(N4CCOCC4)c3s2)CC1 [Pictilisib] (partner 1 µM) the relative viability ([1]; first compound 0.08 µM) was 0.441, the relative viability ([1]; first compound 0.253 µM) was 0.374 and the relative viability ([1]; first compound 0.8 µM) was 0.343. It also gave a relative viability ([1]; first compound 2.53 µM) of 0.246, a relative viability ([2]; first compound 0.08 µM) of 0.46 and a relative viability ([2]; first compound 0.253 µM) of 0.351. For the same compound, the relative viability ([2]; first compound 0.8 µM) was 0.33, the relative viability ([2]; first compound 2.53 µM) was 0.33 and the relative viability ([3]; first compound 0.8 µM) was 0.911. For the same compound, the relative viability ([3]; first compound 2.53 µM) was 0.7, the relative viability ([4]; first compound 0.08 µM) was 0.631 and the relative viability ([4]; first compound 0.253 µM) was 0.504. The relative viability ([4]; first compound 0.8 µM) was 0.646, the relative viability ([4]; first compound 2.53 µM) was 0.565 and the relative viability ([5]; first compound 0.08 µM) was 0.344. The relative viability ([5]; first compound 0.253 µM) was 0.308, the relative viability ([5]; first compound 0.8 µM) was 0.308 and the relative viability ([5]; first compound 2.53 µM) was 0.363. It also gave a relative viability ([6]; first compound 0.08 µM) of 0.477, a relative viability ([6]; first compound 0.253 µM) of 0.448 and a relative viability ([6]; first compound 0.8 µM) of 0.473. It also gave a relative viability ([6]; first compound 2.53 µM) of 0.406, a relative viability ([7]; first compound 0.08 µM) of 0.502 and a relative viability ([7]; first compound 0.253 µM) of 0.526. The relative viability ([7]; first compound 0.8 µM) was 0.416, the relative viability ([7]; first compound 2.53 µM) was 0.378 and the relative viability ([8]; first compound 0.08 µM) was 0.177. For the same compound, the relative viability ([8]; first compound 0.253 µM) was 0.187, the relative viability ([8]; first compound 0.8 µM) was 0.176 and the relative viability ([8]; first compound 2.53 µM) was 0.158. The relative viability ([9]; first compound 0.08 µM) was 0.247, the relative viability ([9]; first compound 0.253 µM) was 0.304 and the relative viability ([9]; first compound 0.8 µM) was 0.253. It also gave a relative viability ([9]; first compound 2.53 µM) of 0.382, a relative viability ([10]; first compound 0.08 µM) of 0.629 and a relative viability ([10]; first compound 0.253 µM) of 0.598. The relative viability ([10]; first compound 0.8 µM) was 0.729, the relative viability ([10]; first compound 2.53 µM) was 0.648 and the relative viability ([11]; first compound 0.08 µM) was 0.962. For the same compound, the relative viability ([11]; first compound 0.253 µM) was 0.63, the relative viability ([11]; first compound 0.8 µM) was 0.596 and the relative viability ([11]; first compound 2.53 µM) was 0.65. It also gave a relative viability ([12]; first compound 0.08 µM) of 0.759, a relative viability ([12]; first compound 0.253 µM) of 0.581 and a relative viability ([12]; first compound 0.8 µM) of 0.602. The relative viability ([12]; first compound 2.53 µM) was 0.348, the relative viability ([13]; first compound 0.08 µM) was 0.733 and the relative viability ([13]; first compound 0.8 µM) was 0.752. For the same compound, the relative viability ([13]; first compound 2.53 µM) was 0.712, the relative viability ([14]; first compound 0.08 µM) was 0.37 and the relative viability ([14]; first compound 0.253 µM) was 0.197. The relative viability ([14]; first compound 0.8 µM) was 0.348, the relative viability ([14]; first compound 2.53 µM) was 0.287 and the relative viability ([15]; first compound 0.08 µM) was 0.878. For the same compound, the relative viability ([15]; first compound 0.253 µM) was 0.718, the relative viability ([15]; first compound 0.8 µM) was 0.67 and the relative viability ([15]; first compound 2.53 µM) was 0.511. It also gave a relative viability ([16]; first compound 0.08 µM) of 1.05, a relative viability ([16]; first compound 0.253 µM) of 0.768 and a relative viability ([16]; first compound 0.8 µM) of 0.757. It also gave a relative viability ([16]; first compound 2.53 µM) of 0.564, a relative viability ([17]; first compound 0.08 µM) of 0.5 and a relative viability ([17]; first compound 0.253 µM) of 1.13. It also gave a relative viability ([17]; first compound 0.8 µM) of 0.407, a relative viability ([17]; first compound 2.53 µM) of 0.428 and a relative viability ([18]; first compound 0.08 µM) of 0.56. It also gave a relative viability ([18]; first compound 0.253 µM) of 0.487, a relative viability ([18]; first compound 0.8 µM) of 0.416 and a relative viability ([18]; first compound 2.53 µM) of 0.314. The relative viability ([19]; first compound 0.08 µM) was 0.858, the relative viability ([19]; first compound 0.253 µM) was 0.632 and the relative viability ([19]; first compound 0.8 µM) was 0.736. It also gave a relative viability ([19]; first compound 2.53 µM) of 0.755, a relative viability ([20]; first compound 0.08 µM) of 0.488 and a relative viability ([20]; first compound 0.253 µM) of 0.418. For the same compound, the relative viability ([20]; first compound 0.8 µM) was 0.371, the relative viability ([20]; first compound 2.53 µM) was 0.383 and the relative viability ([21]; first compound 0.08 µM) was 0.164. The relative viability ([21]; first compound 0.253 µM) was 0.114, the relative viability ([21]; first compound 0.8 µM) was 0.142 and the relative viability ([21]; first compound 2.53 µM) was 0.0889. It also gave a relative viability ([22]; first compound 0.08 µM) of 0.216, a relative viability ([22]; first compound 0.253 µM) of 0.206 and a relative viability ([22]; first compound 0.8 µM) of 0.161. The relative viability ([22]; first compound 2.53 µM) was 0.213, the relative viability ([23]; first compound 0.08 µM) was 0.477 and the relative viability ([23]; first compound 0.253 µM) was 0.386. The relative viability ([23]; first compound 0.8 µM) was 0.345 and the relative viability ([23]; first compound 2.53 µM) was 0.394.

From the supplement of paper PMC10307832
